# How the values were obtained:
# [1] = tested on: KIBRA with novel PKCs (PKCδ, PKCε, PKCη, PKCθ); experiment: BiFC assay of KIBRA with novel PKCs in HEK293T cells; type: cell-based, human
# Experimental: (§1) KIBRA-PKMζ BiFC was performed as previously described (28), using pVen1-FLAG-KIBRA and pVen2-HA-PKMζ, in which PKMζ was cloned between EcoR1 and BamH1 sites. The constructs pVen1 and pVen2 encode the N-terminus (amino acids 1-154) and C-terminus (amino acids 155-238) of the Venus protein, respectively, and the Venus fragments were on the N-terminal of the fusion proteins. pVen2-HA-PKMζ[PKCι/λ-P291Q;F297S] was generated by site-directed mutagenesis using forward-cctggagAagcAAatceggatcccccggtCcctgtccgte and reverse-gacggacaggGaccgggggatccggatTTgctTctccagg primers and the QuickChange II XL Site-Directed Mutagenesis Kit (Agilent Technologies), following manufacturer's instructions. Additional pVen2-HA-PKC isoforms and pVen2-HA-CaMKIIα in the pVen2-HA vector were generated by cloning the N-terminus of the coding sequence of each kinase (table S1) to obtain an in-frame fusion at the C-terminus of the pVen2-HA. Human versions of KIBRA and kinases were used, and all PCR amplified sequences and constructs were verified by DNA sequencing.
# (§2) HEK293T cells were cultured in Dulbecco's Modified Eagle's Medium supplemented with 10% heat-inactivated fetal bovine serum, 100 U/ml penicillin, […] streptomycin, 2 mM glutamine, and 10 mM HEPES in a T75 tissue culture flask with canted neck and ventilated cap. […]
# [2] = biological target: T1, KIBRA-PKMζ[PKCι/λ-P291Q;F297S] interaction (Homo sapiens, UniProt Q05513, F480S/P474Q); experiment: BiFC assay of KIBRA with mutant PKMζ[PKCι/λ-P291Q;F297S] in HEK293T cells; type: cell-based; conditions: 10 μM
# T1 construct: expressed in transfected cells; host or cells: HEK293T
# T1 sequence (Q05513 184-592 P474Q/F480S): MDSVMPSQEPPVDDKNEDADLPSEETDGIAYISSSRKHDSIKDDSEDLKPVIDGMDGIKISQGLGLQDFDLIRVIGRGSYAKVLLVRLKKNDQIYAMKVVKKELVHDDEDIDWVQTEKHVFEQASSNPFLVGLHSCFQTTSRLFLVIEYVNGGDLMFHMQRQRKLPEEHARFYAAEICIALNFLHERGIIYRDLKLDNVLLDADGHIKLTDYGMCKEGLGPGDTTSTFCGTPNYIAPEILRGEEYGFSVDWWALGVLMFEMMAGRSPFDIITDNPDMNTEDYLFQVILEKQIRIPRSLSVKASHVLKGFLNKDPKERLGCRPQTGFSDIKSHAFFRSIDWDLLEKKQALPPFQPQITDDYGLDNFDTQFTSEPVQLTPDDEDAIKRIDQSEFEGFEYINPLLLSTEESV
# Experimental: as §1, §2
smiles,measurement,setting,value
"O=S(=O)(O)c1cc(O)c2c(S(=O)(=O)O)cc(S(=O)(=O)O)cc2c1 [ζ-stat, 1-naphthol-3,6,8-trisulphonic acid]",effect on BiFC of KIBRA with novel PKCs,[1],has no effect
same,effect on KIBRA interaction with mutated PKMζ[PKCι/λ-P291Q;F297S] (BiFC),[2],does not inhibit
same,effect on KIBRA interaction with mutated PKMζ[PKCι/λ-P291Q;F297S] (BiFC),[2]; listed as z-stat,has no effects
